Values of other authors in US9272036B2, “Carbon dioxide, saline and additional active nasal delivery methods and treatments” (CLOVER HILL HEALTHCARE, INC., priority 2012, dated 2016).

Tested on: subjects with SAR

O=C=O [CO(2), carbon dioxide]
histamine levels in ipsilateral nasal secretions (after pretreatment with CO(2), increased significantly with sham treatment): did not increase | sensation reported by subjects during exposure (during 20-second intranasal exposure): transient burning sensation | ipsilateral secretion weights (nasal allergen challenge 30 minutes after 20-second CO(2) exposure, compared with no treatment): numerically reduced | bilateral runny nose symptoms (nasal allergen challenge 30 minutes after 20-second CO(2) exposure, compared with no treatment, p=0.01): significant reduction | contralateral secretion weights (reflex secretory response, primary outcome) (nasal allergen challenge 30 minutes after 20-second CO(2) exposure, compared with no treatment, p=0.04): significant reduction | sneezes (nasal allergen challenge (grass or ragweed) 30 minutes after 20-second CO(2) exposure, compared with no treatment, p=0.05): significant reduction | acute response to allergen challenge (overall) (treatment with nasal CO(2)): partial reduction
